Laboratory results as given in patent US11993603B2, “Preparation for 6-amino-1H-pyrazolo[3,4-d]pyrimidine-based JAK kinase inhibitor and application thereof” (INSTITUTE OF MATERIA MEDICA, CHINESE ACADEMY OF MEDICAL …, priority 2018, dated 2024).
Read-outs that look alike come from different tables or passages of the source.

Columns and labels:
Type in all cases: biochemical
JAK-1 = JAK-1 (Homo sapiens (Human), UniProt P23458); experiment: Inhibition test on JAK-1 kinase (FRET peptide substrate assay); conditions: kinase 1 nM, 1 h at room temperature
From the text: (§1) Experiment Example (Inhibition Tests on JAK-1, JAK-2 and JAK-3 Kinases)
(§2) To evaluate the inhibitory activity of the compound on JAK-1, JAK-2 and JAK-3 kinases
(§3) A proteolytic enzyme is coupled to exert different proteolysis on a specific phosphorylated and nonphosphorylated peptide substrate based on fluorescence resonance energy transfer (FRET). Both ends of the peptide substrate were respectively labeled FRET energy donor coumarin and energy receptor fluorescein, and at this time, the donor was stimulated to produce energy transfer when the donor is close to a receptor.
(§4) In Kinase Reaction, JAK-1, JAK-2 or JAK-3 may transfer γ-phosphoric acid in ATP onto a single tyrosine residue of a peptide substrate; and there were JAK-1, JAK-2 or JAK-3 inhibitors in the system, γ-phosphoric acid groups on ATP would be not transferred onto the peptide substrate, thus resulting in the failure of phosphorylation. An evaluation experiment was designed based on the principle, a peptide substrate was designed with kinase phosphorylation sites, namely, protein restriction enzyme cutting sites; and both ends thereof were respectively connected with 2 fluorophores as a donor and a receptor respectively; if the kinase kept activity in the system, a γ-phosphonic acid group was transferred onto restriction enzyme cutting sites of the substrate, so that the γ-phosphonic acid group would not be cut and separated into two segments by a protease; moreover, under the stimulation of a laser having a specific wavelength, energy from a segment of fluorescence would be transferred onto another end of fluorophores, thus emitting energy. Otherwise, after kinase activity was inhibited, phosphoric acid groups would be not transferred, and restriction enzyme cutting sites in the substrate would be cut by a […] in the system to separate the substrate into two segments, thereby no energy transfer of fluorescence occurred. Based on this, the activity of the kinase was evaluated.
(§5) In this experiment, a 10 μl kinase reaction system was selected, firstly, 2.5 μl kinase (concentration: 1 nM), 2.5 μl peptide substrate (concentration: 2 μM), 2.5 μl ATP (concentration: […]) and 2.5 μl compound were added to each system for reaction for 1 h at room temperature, and then a 5 μl test solution was added for reaction for 1 h at room temperature, then a 5 μl stop buffer was added. A microplate reader (Synergy H1, BioTek, USA) was used to measure fluorescence intensity (emission intensity of coumarin at 445 nm and emission intensity of fluorescein at 520 nm were detected under the stimulation of 400 nm). The inhibitory activity of each compound was calculated, where it was believed that fluorescence intensity of a well not containing the kinase was 100% inhibited.

JAK-3 = JAK-3 (Homo sapiens (Human), UniProt P52333); experiment: Inhibition test on JAK-3 kinase (FRET peptide substrate assay)
From the text: as §1, §2, §3, §4, §5

JAK-2 = JAK-2 (Homo sapiens (Human), UniProt O60674); experiment: Inhibition test on JAK-2 kinase (FRET peptide substrate assay); conditions: kinase 1 nM, 1 h at room temperature
From the text: as §1, §2, §3, §4, §5

[1] = kinase 1 nM, 1 h at room temperature, read-out: IC50 (nM) JAK-3

Chain of JAK-2 (O60674 whole entry): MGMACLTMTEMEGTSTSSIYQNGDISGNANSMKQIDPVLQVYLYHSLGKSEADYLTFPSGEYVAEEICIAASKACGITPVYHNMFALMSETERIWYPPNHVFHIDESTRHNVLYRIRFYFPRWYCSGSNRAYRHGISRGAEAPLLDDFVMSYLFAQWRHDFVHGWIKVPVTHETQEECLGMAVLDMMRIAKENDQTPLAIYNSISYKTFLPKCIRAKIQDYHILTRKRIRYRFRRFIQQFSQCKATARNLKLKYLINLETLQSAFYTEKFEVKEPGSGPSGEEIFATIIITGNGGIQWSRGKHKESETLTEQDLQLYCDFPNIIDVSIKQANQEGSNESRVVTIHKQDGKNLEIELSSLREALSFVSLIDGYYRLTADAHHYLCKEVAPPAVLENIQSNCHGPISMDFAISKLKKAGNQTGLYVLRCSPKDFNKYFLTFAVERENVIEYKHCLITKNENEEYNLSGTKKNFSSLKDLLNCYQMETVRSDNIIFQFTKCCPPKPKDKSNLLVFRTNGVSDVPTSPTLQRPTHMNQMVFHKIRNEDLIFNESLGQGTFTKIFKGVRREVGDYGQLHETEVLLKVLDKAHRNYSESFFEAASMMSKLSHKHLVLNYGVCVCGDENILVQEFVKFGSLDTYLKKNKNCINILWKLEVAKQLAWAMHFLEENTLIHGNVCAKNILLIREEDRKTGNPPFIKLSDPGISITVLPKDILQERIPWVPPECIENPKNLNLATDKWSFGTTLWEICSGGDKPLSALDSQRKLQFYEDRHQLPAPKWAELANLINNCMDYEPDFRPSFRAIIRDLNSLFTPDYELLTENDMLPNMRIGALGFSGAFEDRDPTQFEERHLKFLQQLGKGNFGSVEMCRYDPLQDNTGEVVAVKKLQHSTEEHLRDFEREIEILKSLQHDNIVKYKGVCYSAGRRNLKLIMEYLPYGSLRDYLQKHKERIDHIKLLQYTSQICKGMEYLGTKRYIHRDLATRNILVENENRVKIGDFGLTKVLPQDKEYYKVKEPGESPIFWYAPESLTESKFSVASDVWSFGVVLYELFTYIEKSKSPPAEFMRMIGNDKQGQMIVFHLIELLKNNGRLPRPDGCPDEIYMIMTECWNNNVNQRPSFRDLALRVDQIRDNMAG
Chain of JAK-3 (P52333 whole entry): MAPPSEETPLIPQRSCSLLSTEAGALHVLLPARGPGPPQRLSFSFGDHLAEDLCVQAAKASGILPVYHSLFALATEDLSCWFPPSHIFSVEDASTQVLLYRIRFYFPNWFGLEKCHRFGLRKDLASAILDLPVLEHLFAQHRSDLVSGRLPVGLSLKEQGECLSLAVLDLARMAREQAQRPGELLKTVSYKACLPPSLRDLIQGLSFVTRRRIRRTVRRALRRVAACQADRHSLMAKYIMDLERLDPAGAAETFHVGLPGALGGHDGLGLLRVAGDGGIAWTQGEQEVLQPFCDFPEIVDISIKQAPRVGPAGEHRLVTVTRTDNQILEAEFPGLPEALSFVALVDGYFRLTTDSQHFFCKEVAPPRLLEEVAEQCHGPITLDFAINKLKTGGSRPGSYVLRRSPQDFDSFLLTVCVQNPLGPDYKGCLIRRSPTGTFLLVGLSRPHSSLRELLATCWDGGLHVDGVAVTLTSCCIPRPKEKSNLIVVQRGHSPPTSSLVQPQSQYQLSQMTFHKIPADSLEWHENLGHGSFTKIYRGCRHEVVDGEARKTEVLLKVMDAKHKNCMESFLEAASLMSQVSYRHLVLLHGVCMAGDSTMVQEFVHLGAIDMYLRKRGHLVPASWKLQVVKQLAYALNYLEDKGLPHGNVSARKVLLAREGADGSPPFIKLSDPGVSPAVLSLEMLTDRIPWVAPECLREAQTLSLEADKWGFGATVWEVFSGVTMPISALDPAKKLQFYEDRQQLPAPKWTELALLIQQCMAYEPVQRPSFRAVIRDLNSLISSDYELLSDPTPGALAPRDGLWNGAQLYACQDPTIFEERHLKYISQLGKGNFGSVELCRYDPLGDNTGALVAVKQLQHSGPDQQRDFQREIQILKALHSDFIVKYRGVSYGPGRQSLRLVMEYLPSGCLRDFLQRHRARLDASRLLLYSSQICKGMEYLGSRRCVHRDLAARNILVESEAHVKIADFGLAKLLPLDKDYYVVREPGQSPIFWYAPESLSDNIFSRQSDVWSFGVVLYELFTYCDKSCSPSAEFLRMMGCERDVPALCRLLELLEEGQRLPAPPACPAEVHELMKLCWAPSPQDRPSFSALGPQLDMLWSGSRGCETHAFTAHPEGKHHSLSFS
Chain of JAK-1 (P23458 whole entry): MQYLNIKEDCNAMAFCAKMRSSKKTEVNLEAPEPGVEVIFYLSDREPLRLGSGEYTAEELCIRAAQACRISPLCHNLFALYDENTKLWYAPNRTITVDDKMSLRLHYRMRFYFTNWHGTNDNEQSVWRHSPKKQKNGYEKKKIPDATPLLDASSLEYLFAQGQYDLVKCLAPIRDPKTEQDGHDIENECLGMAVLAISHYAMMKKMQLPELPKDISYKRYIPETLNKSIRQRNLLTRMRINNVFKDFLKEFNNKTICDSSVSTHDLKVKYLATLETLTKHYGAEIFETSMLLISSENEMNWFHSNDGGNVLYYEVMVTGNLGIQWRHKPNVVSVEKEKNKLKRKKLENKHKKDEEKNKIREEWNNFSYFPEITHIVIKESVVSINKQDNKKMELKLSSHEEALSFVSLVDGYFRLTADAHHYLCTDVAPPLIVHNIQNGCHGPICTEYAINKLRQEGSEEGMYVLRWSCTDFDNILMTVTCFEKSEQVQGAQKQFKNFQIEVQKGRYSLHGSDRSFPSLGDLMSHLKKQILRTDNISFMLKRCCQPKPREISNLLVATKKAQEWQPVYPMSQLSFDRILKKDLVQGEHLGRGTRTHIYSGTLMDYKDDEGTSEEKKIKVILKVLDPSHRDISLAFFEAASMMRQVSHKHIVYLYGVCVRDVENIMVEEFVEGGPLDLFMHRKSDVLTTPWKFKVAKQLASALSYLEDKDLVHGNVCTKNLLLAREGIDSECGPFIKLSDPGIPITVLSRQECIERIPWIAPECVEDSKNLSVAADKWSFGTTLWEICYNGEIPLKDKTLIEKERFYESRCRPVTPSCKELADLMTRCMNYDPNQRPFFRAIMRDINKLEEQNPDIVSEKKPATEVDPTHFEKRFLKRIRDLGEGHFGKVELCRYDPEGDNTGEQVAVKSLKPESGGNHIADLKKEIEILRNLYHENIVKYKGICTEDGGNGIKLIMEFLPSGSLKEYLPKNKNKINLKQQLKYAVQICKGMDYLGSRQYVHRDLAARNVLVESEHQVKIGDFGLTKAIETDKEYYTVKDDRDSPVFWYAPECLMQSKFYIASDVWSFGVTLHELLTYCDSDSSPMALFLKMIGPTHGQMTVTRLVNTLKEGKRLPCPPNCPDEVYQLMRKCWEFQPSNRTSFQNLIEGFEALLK

IC50 (JAK-1) | IC50 (JAK-3; [1]) | IC50 (JAK-2) | IC50 (JAK-3; differs from Table 5, read-out: JAK-3 inhibitory activity IC50) | Compound
940 nM | 0.1 nM | 697 nM | – | C/C=C/C(=O)Nc1ccc(Cn2ncc3cnc(Nc4cnn(C)c4)nc32)cc1 [Example 23, N-(4-((6-((1-methyl-1H-pyrazol-4-yl)amino)-1H-pyrazolo[3,4-d]pyrimidin-1-yl)methyl)phenyl)but-2-enamide]
2400 nM | 1.2 nM | 1040 nM | – | C/C=C/C(=O)Nc1ccc(Cn2ncc3cnc(Nc4ccccc4)nc32)cc1 [Example 25, N-(4-((6-aniline-1H-pyrazolo[3,4-d]pyrimidin-1-yl)methyl)phenyl)but-2-enamide]
1030 nM | 0.2 nM | 2310 nM | – | C/C=C/C(=O)Nc1cccc(Cn2ncc3cnc(Nc4ccc(F)cc4)nc32)c1 [Example 12, N-(3-((6-((4-fluorophenyl)amino)-1H-pyrazolo[3,4-d]pyrimidin-1-yl)methyl)phenyl)but-2-enamide]
2850 nM | 0.2 nM | 1800 nM | – | C=CC(=O)Nc1ccc(Cn2ncc3cnc(Nc4ccc(N5CCN(C)CC5)cc4)nc32)cc1 [Example 21, N-(4-((6-((4-(4-methylpiperazin-1-yl)phenyl)amino)-1H-pyrazolo[3,4-d]pyrimidin-1-yl)methyl)phenyl)acrylamide]
940 nM | 0.7 nM | 960 nM | – | C/C=C/C(=O)Nc1cccc(Cn2ncc3cnc(Nc4cnn(CCO)c4)nc32)c1 [Example 10, N-(3-((6-((1-(2-hydroxyethyl)-1H-pyrazol-4-yl)amino)-1H-pyrazolo[3,4-d]pyrimidin-1-yl)methyl)phenyl)but-2-enamide]
918 nM | 2 nM | 1250 nM | – | C/C=C/C(=O)Nc1ccc(Cn2ncc3cnc(Nc4cnn(CCOC)c4)nc32)cc1 [Example 22, N-(4-((6-((1-(2-methoxy-ethyl)-1H-pyrazol-4-yl)amino)-1H-pyrazolo[3,4-d]pyrimidine-1-yl)methyl)phenyl)but-2-enamide]
618 nM | 2.1 nM | 860 nM | – | C/C=C/C(=O)Nc1cccc(Cn2ncc3cnc(Nc4cnn(C)c4)nc32)c1 [Example 9, N-(3-((6-((1-methyl-1H-pyrazol-4-yl)amino)-1H-pyrazolo[3,4-d]pyrimidin-1-yl)methyl)phenyl)but-2-enamide]
– | 1.4 nM | 747 nM | 0.085 nM | C=CC(=O)Nc1cccc(Cn2ncc3cnc(Nc4cnn(CCOC)c4)nc32)c1 [Example 1, N-(3-((6-((1-(2-methoxyethyl)-1H-pyrazol-4-yl)amino)-1H-pyrazolo[3,4-d]pyrimidine-1-yl)methyl)phenyl)acrylamide]
701 nM | 3 nM | 610 nM | – | C/C=C/C(=O)Nc1cccc(Cn2ncc3cnc(Nc4cnn(CCOC)c4)nc32)c1 [Example 8, N-(3-((6-((1-(2-methoxy-ethyl)-1H-pyrazol-4-yl)amino)-1H-pyrazolo[3,4-d]pyrimidine-1-yl)methyl)phenyl)but-2-enamide]
830 nM | 1.4 nM | 690 nM | – | C/C=C/C(=O)Nc1cccc(Cn2ncc3cnc(Nc4ccccc4)nc32)c1 [Example 11, N-(3-((6-aniline-1H-pyrazolo[3,4-d]pyrimidin-1-yl)methyl)phenyl)but-2-enamide]
890 nM | 0.4 nM | 710 nM | – | C/C=C/C(=O)Nc1cccc(Cn2ncc3cnc(Nc4ccc(N5CCOCC5)cc4)nc32)c1 [Example 13, N-(3-((6-((4-morpholinylphenyl)amino)-1H-pyrazolo[3,4-d]pyrimidin-1-yl)methyl)phenyl)but-2-enamide]
960 nM | 2 nM | 893 nM | – | C/C=C/C(=O)Nc1ccc(Cn2ncc3cnc(Nc4ccc(N5CCOCC5)cc4)nc32)cc1 [Example 27, N-(4-((6-((4-morpholinylphenyl)amino)-1H-pyrazolo[3,4-d]pyrimidin-1-yl)methyl)phenyl)but-2-enamide]
1000 nM | 0.1 nM | 3100 nM | – | C=CC(=O)Nc1cccc(Cn2ncc3cnc(Nc4ccc(N5CCOCC5)cc4)nc32)c1 [Example 6, N-(3-((6-((4-morpholinylphenyl)amino)-1H-pyrazolo[3,4-d]pyrimidin-1-yl)methyl)phenyl)acrylamide]
829 nM | 0.13 nM | 4220 nM | – | C=CC(=O)Nc1cccc(Cn2ncc3cnc(Nc4cnn(CCO)c4)nc32)c1 [Example 3, N-(3-((6-((1-(2-hydroxyethyl)-1H-pyrazol-4-yl)amino)-1H-pyrazolo[3,4-d]pyrimidin-1-yl)methyl)phenyl)acrylamide]
901 nM | 1.1 nM | 1120 nM | – | C=CC(=O)Nc1cccc(Cn2ncc3cnc(Nc4ccccc4)nc32)c1 [Example 4, N-(3-((6-aniline-1H-pyrazolo[3,4-d]pyrimidin-1-yl)methyl)phenyl)acrylamide]
1580 nM | 3.7 nM | 1800 nM | – | C=CC(=O)Nc1ccc(Cn2ncc3cnc(Nc4ccc(F)cc4)nc32)cc1 [Example 19, N-(4-((6-((4-fluorophenyl)amino)-1H-pyrazolo[3,4-d]pyrimidin-1-yl)methyl)phenyl)acrylamide]
274 nM | 0.9 nM | 1310 nM | – | C/C=C/C(=O)Nc1cccc(Cn2ncc3cnc(Nc4ccc(N5CCN(C)CC5)cc4)nc32)c1 [Example 14, N-(3-((6-((4-(4-methylpiperazin-1-yl)phenyl)amino)-1H-pyrazolo[3,4-d]pyrimidin-1-yl)methyl)phenyl)but-2-enamide]
934 nM | 1.7 nM | 892 nM | – | C=CC(=O)Nc1ccc(Cn2ncc3cnc(Nc4ccc(N5CCOCC5)cc4)nc32)cc1 [Example 20, N-(4-((6-((4-morpholinylphenyl)amino)-1H-pyrazolo[3,4-d]pyrimidin-1-yl)methyl)phenyl)acrylamide]
1580 nM | 3.7 nM | 1800 nM | – | C=CC(=O)Nc1cccc(Cn2ncc3cnc(Nc4ccc(F)cc4)nc32)c1 [Example 5, N-(3-((6-((4-fluorophenyl)amino)-1H-pyrazolo[3,4-d]pyrimidin-1-yl)methyl)phenyl)acrylamide]
1120 nM | 0.2 nM | 948 nM | – | C/C=C/C(=O)Nc1ccc(Cn2ncc3cnc(Nc4cnn(CCO)c4)nc32)cc1 [Example 24, N-(4-((6-((1-(2-hydroxyethyl)-1H-pyrazol-4-yl)amino)-1H-pyrazolo[3,4-d]pyrimidin-1-yl)methyl)phenyl)but-2-enamide]
942 nM | 6.1 nM | 1080 nM | – | C=CC(=O)Nc1cccc(Cn2ncc3cnc(Nc4ccc(N5CCN(C)CC5)cc4)nc32)c1 [Example 7, N-(3-((6-((4-(4-methylpiperazin-1-yl)phenyl)amino)-1H-pyrazolo[3,4-d]pyrimidin-1-yl)methyl)phenyl)acrylamide]
1410 nM | 1.4 nM | 770 nM | – | C=CC(=O)Nc1ccc(Cn2ncc3cnc(Nc4cnn(C)c4)nc32)cc1 [Example 16, N-(4-((6-((1-methyl-1H-pyrazol-4-yl)amino)-1H-pyrazolo[3,4-d]pyrimidine-1-yl)methyl)phenyl)acrylamide]
4090 nM | 2.3 nM | 790 nM | – | C/C=C/C(=O)Nc1ccc(Cn2ncc3cnc(Nc4ccc(N5CCN(C)CC5)cc4)nc32)cc1 [Example 28, N-(4-((6-((4-(4-methylpiperazin-1-yl)phenyl)amino)-1H-pyrazolo[3,4-d]pyrimidin-1-yl)methyl)phenyl)but-2-enamide]
1390 nM | 2.2 nM | 941 nM | – | C=CC(=O)Nc1cccc(Cn2ncc3cnc(Nc4cnn(C)c4)nc32)c1 [Example 2]
880 nM | 0.3 nM | 804 nM | – | C/C=C/C(=O)Nc1ccc(Cn2ncc3cnc(Nc4ccc(F)cc4)nc32)cc1 [Example 26, N-(4-((6-((4-fluorophenyl)amino)-1H-pyrazolo[3,4-d]pyrimidine-1-yl)methyl)phenyl)but-2-enamide]
1420 nM | 2 nM | 846 nM | – | C=CC(=O)Nc1ccc(Cn2ncc3cnc(Nc4cnn(CCO)c4)nc32)cc1 [Example 17, N-(4-((6-((1-(2-hydroxyethyl)-1H-pyrazol-4-yl)amino)-1H-pyrazolo[3,4-d]pyrimidin-1-yl)methyl)phenyl)acrylamide]
